Reference: ChEMBL document CHEMBL4138123, “Design, synthesis and biological evaluation of novel pyrazolochalcones as potential modulators of PI3K/Akt/mTOR pathway and inducers of apoptosis in breast cancer cells” (Eur J Med Chem, 2017)

How the values were obtained:
Assay type in all cases: functional
UACC-257 [1] = test: Cytotoxicity against human UACC257 cells assessed as cell growth at 0.1 uM after 48 hrs by sulforhodamine B assay relative to control; details: UACC-257, 48 h, read-out: Activity
UACC-62 [2] = test: Cytotoxicity against human UACC62 cells assessed as cell growth at 100 uM after 48 hrs by sulforhodamine B assay relative to control; details: UACC-62, 48 h, read-out: Activity
786-0 = test: Cytotoxicity against human 786-0 cells assessed as cell growth at 1 uM after 48 hrs by sulforhodamine B assay relative to control; details: 786-0, 48 h, read-out: Activity
HCC 2998 [3] = test: Cytotoxicity against human HCC2998 cells assessed as cell growth at 1 uM after 48 hrs by sulforhodamine B assay relative to control; details: HCC 2998, 48 h, read-out: Activity
KM12 [4] = test: Cytotoxicity against human KM12 cells assessed as cell growth at 100 uM after 48 hrs by sulforhodamine B assay relative to control; details: KM12, 48 h, read-out: Activity
RPMI-8226 [5] = test: Cytotoxicity against human RPMI8226 cells assessed as cell growth at 1 uM after 48 hrs by sulforhodamine B assay relative to control; details: RPMI-8226, 48 h, read-out: Activity
OVCAR-3 [6] = test: Cytotoxicity against human OVCAR3 cells assessed as cell growth at 10 uM after 48 hrs by sulforhodamine B assay relative to control; details: OVCAR-3, 48 h, read-out: Activity
PC-3 = test: Cytotoxicity against human PC3 cells assessed as cell growth at 10 uM after 48 hrs by sulforhodamine B assay relative to control; details: PC-3, 48 h, read-out: Activity
HL-60(TB) = test: Cytotoxicity against human HL-60(TB) cells assessed as cell growth at 0.1 uM after 48 hrs by sulforhodamine B assay relative to control; details: HL-60, 48 h, read-out: Activity
M14 = test: Cytotoxicity against human M14 cells assessed as cell growth at 1 uM after 48 hrs by sulforhodamine B assay relative to control; details: M14, 48 h, read-out: Activity
SN12C = test: Cytotoxicity against human SN12C cells assessed as growth inhibition after 48 hrs by sulforhodamine B assay
SK-OV-3 [7] = test: Cytotoxicity against human SKOV3 cells assessed as cell growth at 10 uM after 48 hrs by sulforhodamine B assay relative to control; details: SK-OV-3, 48 h, read-out: Activity
SF-539 = test: Cytotoxicity against human SF539 cells assessed as cell growth at 100 uM after 48 hrs by sulforhodamine B assay relative to control; details: SF-539, 48 h, read-out: Activity
NCI-H226 = test: Cytotoxicity against human NCI-H226 cells assessed as cell growth at 1 uM after 48 hrs by sulforhodamine B assay relative to control; details: NCI-H226, 48 h, read-out: Activity
OVCAR-3 [8] = test: Cytotoxicity against human OVCAR3 cells assessed as cell growth at 100 uM after 48 hrs by sulforhodamine B assay relative to control; details: OVCAR-3, 48 h, read-out: Activity
OVCAR-5 = test: Cytotoxicity against human OVCAR5 cells assessed as cell growth at 1 uM after 48 hrs by sulforhodamine B assay relative to control; details: OVCAR-5, 48 h, read-out: Activity
UACC-62 [9] = test: Cytotoxicity against human UACC62 cells assessed as cell growth at 0.1 uM after 48 hrs by sulforhodamine B assay relative to control; details: UACC-62, 48 h, read-out: Activity
OVCAR-3 [10] = test: Cytotoxicity against human OVCAR3 cells assessed as cell growth at 0.01 uM after 48 hrs by sulforhodamine B assay relative to control; details: OVCAR-3, 48 h, read-out: Activity
UACC-257 [11] = test: Cytotoxicity against human UACC257 cells assessed as cell growth at 1 uM after 48 hrs by sulforhodamine B assay relative to control; details: UACC-257, 48 h, read-out: Activity
KM12 [12] = test: Cytotoxicity against human KM12 cells assessed as growth inhibition after 48 hrs by sulforhodamine B assay; details: KM12, 48 h
NCI-H322M = test: Cytotoxicity against human NCI-H322M cells assessed as cell growth at 10 uM after 48 hrs by sulforhodamine B assay relative to control; details: read-out: Activity
BT-549 = test: Cytotoxicity against human BT549 cells assessed as cell growth at 10 uM after 48 hrs by sulforhodamine B assay relative to control; details: BT-549, 48 h, read-out: Activity
NCI/ADR-RES = test: Cytotoxicity against human NCI/ADR-RES cells assessed as cell growth at 0.01 uM after 48 hrs by sulforhodamine B assay relative to control; details: read-out: Activity
SK-MEL-5 = test: Cytotoxicity against human SK-MEL-5 cells assessed as cell growth at 100 uM after 48 hrs by sulforhodamine B assay relative to control; details: SK-MEL-5, 48 h, read-out: Activity
UO-31 = test: Cytotoxicity against human UO31 cells assessed as cell growth at 10 uM after 48 hrs by sulforhodamine B assay relative to control; details: UO-31, 48 h, read-out: Activity
RPMI-8226 [13] = test: Cytotoxicity against human RPMI8226 cells assessed as cell growth at 100 uM after 48 hrs by sulforhodamine B assay relative to control; details: RPMI-8226, 48 h, read-out: Activity
OVCAR-4 = test: Cytotoxicity against human OVCAR4 cells assessed as cell growth at 0.1 uM after 48 hrs by sulforhodamine B assay relative to control; details: OVCAR-4, 48 h, read-out: Activity
Hs-578T = test: Cytotoxicity against human Hs 578T cells assessed as growth inhibition after 48 hrs by sulforhodamine B assay
TK-10 = test: Cytotoxicity against human TK10 cells assessed as cell growth at 100 uM after 48 hrs by sulforhodamine B assay relative to control; details: TK-10, 48 h, read-out: Activity
SK-MEL-28 = test: Cytotoxicity against human SK-MEL-28 cells assessed as cell growth at 100 uM after 48 hrs by sulforhodamine B assay relative to control; details: SK-MEL-28, 48 h, read-out: Activity
K562 = test: Cytotoxicity against human K562 cells assessed as cell growth at 10 uM after 48 hrs by sulforhodamine B assay relative to control; details: K562, 48 h, read-out: Activity
UACC-257 [14] = test: Cytotoxicity against human UACC257 cells assessed as cell growth at 10 uM after 48 hrs by sulforhodamine B assay relative to control; details: UACC-257, 48 h, read-out: Activity
T47D = test: Cytotoxicity against human T47D cells assessed as cell growth at 10 uM after 48 hrs by sulforhodamine B assay relative to control; details: read-out: Activity
SK-OV-3 [15] = test: Cytotoxicity against human SKOV3 cells assessed as cell growth at 1 uM after 48 hrs by sulforhodamine B assay relative to control; details: SK-OV-3, 48 h, read-out: Activity
HCC 2998 [16] = test: Cytotoxicity against human HCC2998 cells assessed as cell growth at 0.1 uM after 48 hrs by sulforhodamine B assay relative to control; details: HCC 2998, 48 h, read-out: Activity

| SMILES | growth at 0.1 µM (UACC-257 [1]) [%] | growth at 100 µM (UACC-62 [2]) [%] | growth at 1 µM (786-0) [%] | growth at 1 µM (HCC 2998 [3]) [%] | growth at 100 µM (KM12 [4]) [%] | growth at 1 µM (RPMI-8226 [5]) [%] | growth at 10 µM (OVCAR-3 [6]) [%] | growth at 10 µM (PC-3) [%] | growth at 0.1 µM (HL-60(TB)) [%] | growth at 1 µM (M14) [%] | LC50 (SN12C) [µM] | TGI (SN12C) [µM] | growth at 10 µM (SK-OV-3 [7]) [%] | growth at 100 µM (SF-539) [%] | growth at 1 µM (NCI-H226) [%] | growth at 100 µM (OVCAR-3 [8]) [%] | growth at 1 µM (OVCAR-5) [%] | growth at 0.1 µM (UACC-62 [9]) [%] | growth at 0.01 µM (OVCAR-3 [10]) [%] | growth at 1 µM (UACC-257 [11]) [%] | also measured |
| --- | --- | --- | --- | --- | --- | --- | --- | --- | --- | --- | --- | --- | --- | --- | --- | --- | --- | --- | --- | --- | --- |
| COc1cc(-c2cc(/C=C/C(=O)c3ccc(F)c(F)c3)[nH]n2)cc(OC)c1OC | 92 | -81 | 93 | 99 | -48 | 73 | -24 | -23 | 93 | 86 | > 100 | 25.5 | 17 | -63 | 95 | -64 | 92 | 93 | 102 | 72 | LC50 (KM12 [12]): > 100 µM; TGI (KM12 [12]): 11.4 µM; growth at 10 µM (NCI-H322M): 18%; growth at 10 µM (BT-549): 23%; growth at 0.01 µM (NCI/ADR-RES): 100%; growth at 100 µM (SK-MEL-5): -88%; growth at 10 µM (UO-31): 3%; growth at 100 µM (RPMI-8226 [13]): -36%; growth at 0.1 µM (OVCAR-4): 111%; LC50 (Hs-578T): > 100 µM; TGI (Hs-578T): 36.8 µM; growth at 100 µM (TK-10): -37%; growth at 100 µM (SK-MEL-28): -39%; growth at 10 µM (K562): 2%; growth at 10 µM (UACC-257 [14]): -18%; growth at 10 µM (T47D): 9%; growth at 1 µM (SK-OV-3 [15]): 90%; growth at 0.1 µM (HCC 2998 [16]): 92% |
| COc1ccc(-c2cc(/C=C/C(=O)c3ccc4c(c3)OCO4)[nH]n2)cc1OC | – | – | – | – | – | – | – | – | – | – | – | – | – | – | – | – | – | – | – | – | GI50 (SN12C): 4.96 µM; GI50 (KM12 [12]): 0.62 µM; GI50 (Hs-578T): 3.76 µM |
| COc1cc(-c2cc(/C=C/C(=O)c3ccc(Cl)c(Cl)c3)[nH]n2)cc(OC)c1OC | 96 | 14 | 91 | 102 | 3 | 33 | 40 | 39 | 100 | 107 | > 100 | > 100 | 26 | -74 | 96 | -30 | 92 | 94 | 103 | 90 | LC50 (KM12 [12]): > 100 µM; TGI (KM12 [12]): > 100 µM; growth at 10 µM (NCI-H322M): 59%; growth at 10 µM (BT-549): 47%; growth at 0.01 µM (NCI/ADR-RES): 100%; growth at 100 µM (SK-MEL-5): -30%; growth at 10 µM (UO-31): 40%; growth at 100 µM (RPMI-8226 [13]): -25%; growth at 0.1 µM (OVCAR-4): 106%; LC50 (Hs-578T): > 100 µM; TGI (Hs-578T): > 100 µM; growth at 100 µM (TK-10): -27%; growth at 100 µM (SK-MEL-28): -16%; growth at 10 µM (K562): 28%; growth at 10 µM (UACC-257 [14]): 66%; growth at 10 µM (T47D): 9%; growth at 1 µM (SK-OV-3 [15]): 89%; growth at 0.1 µM (HCC 2998 [16]): 97% |
| COc1cc(C(=O)/C=C/c2cc(-c3cc(OC)c(OC)c(OC)c3)n[nH]2)cc(OC)c1OC | 91 | -97 | 80 | 99 | -81 | 17 | -96 | -69 | 101 | 98 | 5.99 | 2.97 | 5 | -99 | 86 | -98 | 89 | 95 | 107 | 85 | LC50 (KM12 [12]): 5.77 µM; TGI (KM12 [12]): 2.93 µM; growth at 10 µM (NCI-H322M): -41%; growth at 10 µM (BT-549): -96%; growth at 0.01 µM (NCI/ADR-RES): 105%; growth at 100 µM (SK-MEL-5): -98%; growth at 10 µM (UO-31): -95%; growth at 100 µM (RPMI-8226 [13]): -26%; growth at 0.1 µM (OVCAR-4): 95%; LC50 (Hs-578T): > 100 µM; TGI (Hs-578T): 53.9 µM; growth at 100 µM (TK-10): -99%; growth at 100 µM (SK-MEL-28): -97%; growth at 10 µM (UACC-257 [14]): -93%; growth at 10 µM (T47D): -82%; growth at 1 µM (SK-OV-3 [15]): 96%; growth at 0.1 µM (HCC 2998 [16]): 101% |
